Test results: ChEMBL document CHEMBL4261604, “Design, synthesis and biological evaluation of novel carbamodithioates as anti-proliferative agents against human cancer cells” (Eur J Med Chem, 2018)
Active and inactive are the calls of the source. The calls are words filed in the database; no cut-off is given here.

Columns and labels:
[1] = Stability of the compound in methanol:water (1:1) up to 12 hrs by HPLC analysis; assay type: physicochemical
[2] = Stability of the compound in acetonitrile up to 12 hrs by HPLC analysis; assay type: physicochemical
[3] = Drug degradation in methanol after 10 hrs at 50 degC by HPLC analysis; assay type: physicochemical; settings: read-out: Drug degradation
[4] = test system: A-375; experiment: Antiproliferative activity against human A375 cells assessed as inhibition of cell proliferation at 16 uM after 72 hrs by CCK8 assay; assay type: functional; settings: A-375, 72 h
[5] = test system: A-375; experiment: Antiproliferative activity against human A375 cells assessed as inhibition of cell proliferation at 32 uM after 72 hrs by CCK8 assay; assay type: functional; settings: A-375, 72 h
[6] = test system: SMMC-7721; experiment: Antiproliferative activity against human SMMC7721 cells assessed as inhibition of cell proliferation at 16 uM after 72 hrs by CCK8 assay; assay type: functional; settings: SMMC-7721, 72 h
[7] = test system: SMMC-7721; experiment: Antiproliferative activity against human SMMC7721 cells assessed as inhibition of cell proliferation at 32 uM after 72 hrs by CCK8 assay; assay type: functional; settings: SMMC-7721, 72 h
[8] = test system: SMMC-7721; experiment: Antiproliferative activity against human SMMC7721 cells after 72 hrs by CCK8 assay; assay type: functional, cell-based; settings: SMMC-7721, 72 h
[9] = test system: A-375; experiment: Antiproliferative activity against human A375 cells after 72 hrs by CCK8 assay; assay type: functional, cell-based; settings: A-375, 72 h
[10] = test system: HeLa; experiment: Antiproliferative activity against human HeLa cells after 72 hrs by CCK8 assay; assay type: functional, cell-based
[11] = test system: SMMC-7721; experiment: Inhibition of colony formation in human SMMC7721 cells at 2 to 8 uM after 7 days by crystal violet staining-based assay; assay type: functional, cell-based
[12] = test system: SMMC-7721; experiment: Induction of apoptosis in human SMMC7721 cells assessed as necrotic cells at 4 uM after 72 hrs by Alexa Fluor 488 Annexin/propidium iodide staining-based flow cytometric analysis (reference value: […]); assay type: functional
[13] = test system: SMMC-7721; experiment: Induction of apoptosis in human SMMC7721 cells assessed as late apoptotic cells at 4 uM after 72 hrs by Alexa Fluor 488 Annexin/propidium iodide staining-based flow cytometric analysis (reference value: 0.62%); assay type: functional
[14] = test system: SMMC-7721; experiment: Induction of apoptosis in human SMMC7721 cells assessed as early apoptotic cells at 4 uM after 72 hrs by Alexa Fluor 488 Annexin/propidium iodide staining-based flow cytometric analysis (reference value: 0.70%); assay type: functional
[15] = test system: SMMC-7721; experiment: Induction of apoptosis in human SMMC7721 cells assessed as viable cells at 4 uM after 72 hrs by Alexa Fluor 488 Annexin/propidium iodide staining-based flow cytometric analysis (reference value: 91.92%); assay type: functional; settings: SMMC-7721, 72 h, read-out: Activity
[16] = test system: SMMC-7721; experiment: Induction of apoptosis in human SMMC7721 cells assessed as necrotic cells at 8 uM after 72 hrs by Alexa Fluor 488 Annexin/propidium iodide staining-based flow cytometric analysis (reference value: […]); assay type: functional
[17] = test system: SMMC-7721; experiment: Induction of apoptosis in human SMMC7721 cells assessed as late apoptotic cells at 8 uM after 72 hrs by Alexa Fluor 488 Annexin/propidium iodide staining-based flow cytometric analysis (reference value: 0.62%); assay type: functional
[18] = test system: SMMC-7721; experiment: Induction of apoptosis in human SMMC7721 cells assessed as early apoptotic cells at 8 uM after 72 hrs by Alexa Fluor 488 Annexin/propidium iodide staining-based flow cytometric analysis (reference value: 0.70%); assay type: functional
[19] = test system: SMMC-7721; experiment: Induction of apoptosis in human SMMC7721 cells assessed as viable cells at 8 uM after 72 hrs by Alexa Fluor 488 Annexin/propidium iodide staining-based flow cytometric analysis (reference value: 91.92%); assay type: functional; settings: SMMC-7721, 72 h, read-out: Activity
[20] = test system: SMMC-7721; experiment: Cell cycle arrest in human SMMC7721 cells assessed as accumulation at G0/G1 phase at 4 uM after 72 hrs by RNase/propidium iodide staining-based flow cytometric analysis (reference value: 67.26%); assay type: functional
[21] = test system: SMMC-7721; experiment: Cell cycle arrest in human SMMC7721 cells assessed as accumulation at S phase at 4 uM after 72 hrs by RNase/propidium iodide staining-based flow cytometric analysis (reference value: 7.96%); assay type: functional
[22] = test system: SMMC-7721; experiment: Cell cycle arrest in human SMMC7721 cells assessed as accumulation at G2/M phase at 4 uM after 72 hrs by RNase/propidium iodide staining-based flow cytometric analysis (reference value: 24.78%); assay type: functional
[23] = test system: SMMC-7721; experiment: Cell cycle arrest in human SMMC7721 cells assessed as accumulation at G0/G1 phase at 8 uM after 72 hrs by RNase/propidium iodide staining-based flow cytometric analysis (reference value: 67.26%); assay type: functional
[24] = test system: SMMC-7721; experiment: Cell cycle arrest in human SMMC7721 cells assessed as accumulation at S phase at 8 uM after 72 hrs by RNase/propidium iodide staining-based flow cytometric analysis (reference value: 7.96%); assay type: functional
[25] = test system: SMMC-7721; experiment: Cell cycle arrest in human SMMC7721 cells assessed as accumulation at G2/M phase at 8 uM after 72 hrs by RNase/propidium iodide staining-based flow cytometric analysis (reference value: 24.78%); assay type: functional
[26] = test system: A549; experiment: cells; settings: Homo sapiens, A549, 72 h
Description: Antiproliferative activity against human A549 cells after 72 hrs by CCK8 assay

[27] = test system: HCT-116; experiment: cells; settings: Homo sapiens, HCT-116, 72 h
Description: Antiproliferative activity against human HCT116 cells after 72 hrs by CCK8 assay

CC(=O)NCCSC(=S)NCCCC[S+](C)[O-] (stereo unspecified)
Stability [1]: Stable
Stability [2]: Stable

COc1ccc(SC(=S)NCCCC[S+](C)[O-])cc1 (stereo unspecified)
degraded at 10 h [3]: < 6%
Stability [1]: Unstable
Stability [2]: Unstable

COc1ccc(SC(=S)NCC/C=C/[S+](C)[O-])cc1 (stereo unspecified)
degraded at 10 h [3]: 25%
Stability [1]: Unstable
Stability [2]: Unstable

CC(=O)NCCSC(=S)NCC/C=C/[S+](C)[O-] (stereo unspecified)
Stability [1]: Stable
Stability [2]: Stable

C[S+]([O-])/C=C/CCN=C=S (stereo unspecified)
degraded at 10 h [3]: 60%

C[S+]([O-])CCCCN=C=S (stereo unspecified) [SULFORAPHANE]
inhibition at 16 µM [4]: 54%
inhibition at 32 µM [5]: 77.3%
inhibition at 16 µM [6]: 80.5%
inhibition at 32 µM [7]: 88.3%
IC50 [8]: 7.87 µM
IC50 [9]: 24.5 µM
IC50 [10]: 66.1 µM
degraded at 10 h [3]: 60%
inhibition [11]: Active
Activity [12]: 4.14%
Activity [13]: 2.82%
Activity [14]: 4.66%
viability at 4 µM [15]: 88.4%
Activity [16]: 9.59%
Activity [17]: 9.09%
Activity [18]: 14.43%
viability at 8 µM [19]: 66.9%
Activity [20]: 68.06%
Activity [21]: 5.41%
Activity [22]: 26.8%
Activity [23]: 66.19%
Activity [24]: 5.46%
Activity [25]: 28.35%
IC50 [26]: 11.9 µM
IC50 [27]: 36.7 µM
